Assay results: patent publication JP2019059697A, “置換された多環性ピリダジン誘導体およびそのプロドラッグ” (priority 2017, dated 2019)
pEC50: −log10 of the molar value.

Tested on: influenza virus [インフルエンザウイルス]
Assay: microbe, parasite or virus in culture
Format: cell-based
Details: unidentified influenza virus, 72 h, read-out: 50% influenza-infected cell death inhibition concentration (EC50)

SMILES	pEC50
CCN1CN(C2c3ccccc3CCc3ccccc32)n2ncc(=O)c(O)c2C1=O [化合物I−2]	6.68
O=C1c2c(O)c(=O)cnn2N(C2c3ccccc3SCc3c2ccc(F)c3F)C2COCCN12 (single isomer, unassigned) [化合物I−1]	7.74
